{"source": "ChEMBL document CHEMBL3856191", "about": "“Structural modifications at the 6-position of thieno[2,3-d]pyrimidines and their effects on potency at FLT3 for treatment of acute myeloid leukemia” (Eur J Med Chem, 2016)", "key": {"[1]": {"experiment": "AUC (0 to infinity) in Sprague-Dawley rat at 30 mg/kg, up to 24 hrs by LC/MS/MS analysis", "type": "ADME, organism-based", "design": "dose 30 mg/kg, time infinity", "conditions": "in vivo"}, "[2]": {"target": "Tyrosine-protein kinase ABL1 (Homo sapiens, UniProt P00519)", "experiment": "Inhibition of recombinant human ABL1 expressed in insect cells preincubated for 15 mins followed by poly(Glu:Tyr) substrate addition for 30 mins in presence of [gamma-32P]ATP by […] assay"}, "[3]": {"target": "Fibroblast growth factor receptor 3 (Homo sapiens) (UniProt P22607)", "sequence (P22607 23-806 limits assumed)": "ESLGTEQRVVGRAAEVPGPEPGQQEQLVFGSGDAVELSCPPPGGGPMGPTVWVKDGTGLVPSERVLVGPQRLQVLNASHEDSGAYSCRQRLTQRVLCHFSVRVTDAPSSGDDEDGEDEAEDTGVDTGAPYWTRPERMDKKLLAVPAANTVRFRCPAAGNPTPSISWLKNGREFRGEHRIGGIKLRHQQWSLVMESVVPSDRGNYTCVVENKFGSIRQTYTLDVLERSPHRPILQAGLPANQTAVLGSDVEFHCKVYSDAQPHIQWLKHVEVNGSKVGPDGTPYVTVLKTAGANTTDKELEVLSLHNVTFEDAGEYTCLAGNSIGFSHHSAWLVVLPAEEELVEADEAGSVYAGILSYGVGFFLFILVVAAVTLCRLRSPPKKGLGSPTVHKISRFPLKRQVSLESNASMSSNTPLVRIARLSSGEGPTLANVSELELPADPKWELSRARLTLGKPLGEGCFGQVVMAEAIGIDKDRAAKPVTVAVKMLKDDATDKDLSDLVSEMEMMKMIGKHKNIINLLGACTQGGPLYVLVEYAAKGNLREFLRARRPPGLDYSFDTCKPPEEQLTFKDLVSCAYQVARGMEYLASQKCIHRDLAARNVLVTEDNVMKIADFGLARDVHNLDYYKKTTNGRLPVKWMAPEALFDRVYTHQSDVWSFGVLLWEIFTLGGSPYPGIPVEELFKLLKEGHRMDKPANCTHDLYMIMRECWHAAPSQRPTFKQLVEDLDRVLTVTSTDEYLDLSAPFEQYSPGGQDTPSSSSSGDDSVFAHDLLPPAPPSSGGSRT", "experiment": "Inhibition of recombinant human FGFR3 expressed in insect Sf21 cells assessed as remaining activity at 10 uM preincubated for 15 mins followed by poly(Glu:Tyr) substrate addition for 30 mins in presence of [gamma-32P]ATP by […] assay"}, "[4]": {"target": "Dual specificity mitogen-activated protein kinase kinase 6 (Homo sapiens) (UniProt P52564)", "sequence (P52564 whole entry)": "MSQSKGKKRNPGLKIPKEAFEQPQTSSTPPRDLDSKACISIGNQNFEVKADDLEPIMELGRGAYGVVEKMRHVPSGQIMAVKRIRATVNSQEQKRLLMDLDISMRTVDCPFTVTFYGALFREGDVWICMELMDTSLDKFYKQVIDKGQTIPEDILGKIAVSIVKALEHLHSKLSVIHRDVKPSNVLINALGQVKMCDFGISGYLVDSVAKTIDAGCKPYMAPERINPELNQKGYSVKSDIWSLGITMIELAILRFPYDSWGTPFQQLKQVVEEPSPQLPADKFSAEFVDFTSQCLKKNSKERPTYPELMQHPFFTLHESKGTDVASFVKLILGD", "experiment": "Inhibition of human MKK6 assessed as remaining activity at 10 uM in presence of [gamma-32P]ATP by […] assay"}, "[5]": {"target": "Serine-protein kinase ATM (Homo sapiens) (UniProt Q13315)", "experiment": "Inhibition of human ATM assessed as remaining activity at 10 uM preincubated for 15 mins followed by substrate addition for 30 mins in presence of [gamma-32P]ATP by […] assay"}, "[6]": {"experiment": "Tmax in Sprague-Dawley rat at 30 mg/kg, po by LC/MS/MS analysis", "type": "ADME, organism-based", "conditions": "in vivo"}, "[7]": {"experiment": "Solubility of the compound in PBS at pH 7.4 after 1 hr by HPLC-MS analysis", "type": "physicochemical"}, "cells": {"experiment": "cells", "conditions": "Homo sapiens, THP-1, 48 h", "description": "Growth inhibition of human THP1 cells expressing wild type FLT-3 after 48 hrs by XTT assay"}, "[8]": {"target": "Epidermal growth factor receptor (Homo sapiens) (UniProt P00533)", "experiment": "Inhibition of human EGFR assessed as remaining activity at 10 uM in presence of [gamma-32P]ATP by […] assay"}, "[9]": {"target": "Inhibitor of nuclear factor kappa-B kinase subunit alpha (Homo sapiens) (UniProt O15111)", "sequence (O15111 whole entry)": "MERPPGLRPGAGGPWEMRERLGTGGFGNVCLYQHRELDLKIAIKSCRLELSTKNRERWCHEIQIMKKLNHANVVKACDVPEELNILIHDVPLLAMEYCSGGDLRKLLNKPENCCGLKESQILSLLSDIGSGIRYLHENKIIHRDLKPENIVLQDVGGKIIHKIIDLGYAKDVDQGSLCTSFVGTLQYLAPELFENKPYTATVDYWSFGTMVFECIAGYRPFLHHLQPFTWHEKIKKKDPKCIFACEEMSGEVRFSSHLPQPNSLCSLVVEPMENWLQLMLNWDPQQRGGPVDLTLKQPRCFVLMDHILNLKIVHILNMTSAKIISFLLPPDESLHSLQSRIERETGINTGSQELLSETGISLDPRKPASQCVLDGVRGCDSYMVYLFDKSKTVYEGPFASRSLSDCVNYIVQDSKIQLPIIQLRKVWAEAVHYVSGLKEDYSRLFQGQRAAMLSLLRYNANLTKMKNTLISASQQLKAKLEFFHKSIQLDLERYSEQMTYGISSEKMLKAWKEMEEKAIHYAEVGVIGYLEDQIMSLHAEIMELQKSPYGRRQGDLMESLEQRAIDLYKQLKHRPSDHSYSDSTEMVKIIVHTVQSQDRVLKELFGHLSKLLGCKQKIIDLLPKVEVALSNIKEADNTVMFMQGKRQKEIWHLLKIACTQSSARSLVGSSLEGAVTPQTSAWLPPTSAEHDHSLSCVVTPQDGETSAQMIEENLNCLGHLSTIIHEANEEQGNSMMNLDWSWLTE", "experiment": "Inhibition of recombinant human IKK-alpha expressed in insect Sf21 cells assessed as remaining activity at 10 uM preincubated for 15 mins followed by IKKtide substrate addition for 30 mins in presence of [gamma-32P]ATP by […] assay"}, "[10]": {"target": "Non-receptor tyrosine-protein kinase TYK2 (Homo sapiens) (UniProt P29597)", "sequence (P29597 whole entry)": "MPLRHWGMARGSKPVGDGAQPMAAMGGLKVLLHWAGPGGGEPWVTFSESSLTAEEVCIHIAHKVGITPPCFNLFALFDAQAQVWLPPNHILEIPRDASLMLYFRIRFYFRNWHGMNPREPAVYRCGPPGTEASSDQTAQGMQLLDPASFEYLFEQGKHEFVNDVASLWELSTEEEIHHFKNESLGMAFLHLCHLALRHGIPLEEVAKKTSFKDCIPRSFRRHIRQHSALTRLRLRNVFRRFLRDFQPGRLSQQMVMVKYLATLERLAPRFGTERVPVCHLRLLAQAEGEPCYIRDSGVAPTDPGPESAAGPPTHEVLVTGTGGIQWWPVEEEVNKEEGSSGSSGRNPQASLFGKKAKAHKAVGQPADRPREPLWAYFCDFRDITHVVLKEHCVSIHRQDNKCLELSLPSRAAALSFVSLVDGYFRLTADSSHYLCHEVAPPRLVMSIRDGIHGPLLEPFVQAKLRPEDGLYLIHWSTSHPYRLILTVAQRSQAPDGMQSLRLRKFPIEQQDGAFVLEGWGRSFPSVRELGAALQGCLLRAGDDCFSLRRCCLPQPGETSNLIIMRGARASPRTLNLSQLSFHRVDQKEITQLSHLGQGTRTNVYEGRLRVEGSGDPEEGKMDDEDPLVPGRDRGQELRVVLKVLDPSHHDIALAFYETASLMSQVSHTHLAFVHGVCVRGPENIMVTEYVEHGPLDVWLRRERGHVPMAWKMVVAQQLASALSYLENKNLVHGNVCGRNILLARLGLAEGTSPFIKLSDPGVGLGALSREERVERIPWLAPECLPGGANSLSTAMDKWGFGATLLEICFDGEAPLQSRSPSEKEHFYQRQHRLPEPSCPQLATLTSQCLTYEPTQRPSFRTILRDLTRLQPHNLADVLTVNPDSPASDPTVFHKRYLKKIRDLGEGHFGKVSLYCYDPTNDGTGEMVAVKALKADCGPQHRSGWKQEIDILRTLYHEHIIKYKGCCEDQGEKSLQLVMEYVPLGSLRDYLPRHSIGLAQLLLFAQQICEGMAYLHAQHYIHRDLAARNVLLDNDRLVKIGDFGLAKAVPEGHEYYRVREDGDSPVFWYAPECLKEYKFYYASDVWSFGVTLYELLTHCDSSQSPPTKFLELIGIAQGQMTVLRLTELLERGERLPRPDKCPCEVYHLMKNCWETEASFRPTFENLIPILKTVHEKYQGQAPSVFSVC", "experiment": "Inhibition of human TYK2 assessed as remaining activity at 10 uM in presence of [gamma-32P]ATP by […] assay"}, "[11]": {"experiment": "Oral bioavailability in Sprague-Dawley rat at 30 mg/kg up to 24 hrs by LC/MS/MS analysis", "type": "ADME, organism-based", "conditions": "in vivo"}, "[12]": {"target": "Vascular endothelial growth factor receptor 2 (Homo sapiens) (UniProt P35968)", "experiment": "Inhibition of recombinant human KDR expressed in insect Sf21 cells assessed as remaining activity at 10 uM preincubated for 15 mins followed by poly(Glu:Tyr) substrate addition for 30 mins in presence of [gamma-32P]ATP by […] assay"}, "[13]": {"target": "T1, Receptor-type tyrosine-protein kinase FLT3 (Homo sapiens, UniProt P36888)", "T1 sequence (P36888 whole entry)": "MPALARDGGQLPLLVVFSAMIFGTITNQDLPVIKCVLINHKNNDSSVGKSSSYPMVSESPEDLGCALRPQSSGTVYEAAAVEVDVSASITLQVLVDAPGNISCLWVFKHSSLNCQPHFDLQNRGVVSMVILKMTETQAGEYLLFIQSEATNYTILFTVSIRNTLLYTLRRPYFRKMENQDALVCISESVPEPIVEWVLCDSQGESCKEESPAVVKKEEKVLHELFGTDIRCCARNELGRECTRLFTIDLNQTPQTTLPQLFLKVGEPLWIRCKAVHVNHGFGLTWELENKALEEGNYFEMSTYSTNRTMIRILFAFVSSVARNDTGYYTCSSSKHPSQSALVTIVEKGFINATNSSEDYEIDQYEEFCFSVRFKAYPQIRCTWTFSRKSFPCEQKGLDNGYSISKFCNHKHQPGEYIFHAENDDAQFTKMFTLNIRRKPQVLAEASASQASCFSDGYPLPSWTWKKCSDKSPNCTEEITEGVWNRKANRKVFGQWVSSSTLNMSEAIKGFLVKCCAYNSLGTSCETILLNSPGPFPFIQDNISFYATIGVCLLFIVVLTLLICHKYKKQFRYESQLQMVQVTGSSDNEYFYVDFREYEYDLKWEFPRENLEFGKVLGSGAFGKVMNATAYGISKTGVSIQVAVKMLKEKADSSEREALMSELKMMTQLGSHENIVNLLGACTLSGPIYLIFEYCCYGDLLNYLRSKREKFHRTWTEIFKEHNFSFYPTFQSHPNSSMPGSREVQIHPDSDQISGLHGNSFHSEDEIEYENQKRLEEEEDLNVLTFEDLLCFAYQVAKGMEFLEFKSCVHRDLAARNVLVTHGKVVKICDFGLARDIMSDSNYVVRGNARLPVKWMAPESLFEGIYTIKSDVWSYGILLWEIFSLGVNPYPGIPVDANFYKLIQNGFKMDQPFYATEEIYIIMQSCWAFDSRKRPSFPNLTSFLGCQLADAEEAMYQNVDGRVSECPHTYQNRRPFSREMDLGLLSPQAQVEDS", "experiment": "biochemical", "type": "cell-based, Sf21", "description": "Inhibition of recombinant human FLT3 expressed in insect Sf21 cells preincubated for 15 mins followed by poly(Glu:Tyr) substrate addition for 30 mins in presence of [gamma-32P]ATP by TR-FRET assay"}, "[14]": {"target": "Tyrosine-protein kinase Lck (Homo sapiens) (UniProt P06239)", "experiment": "Inhibition of recombinant human LCK expressed in insect cells assessed as remaining activity at 10 uM preincubated for 15 mins followed by poly(Glu:Tyr) substrate addition for 30 mins in presence of [gamma-32P]ATP by […] assay"}, "[15]": {"target": "Protein kinase C alpha type (Homo sapiens) (UniProt P17252)", "experiment": "Inhibition of recombinant human PKC-alpha expressed in insect Sf9 cells assessed as remaining activity at 10 uM preincubated for 15 mins followed by Histone substrate addition for 30 mins in presence of [gamma-32P]ATP by […] assay"}, "[16]": {"target": "Tyrosine-protein kinase SYK (Homo sapiens) (UniProt P43405)", "experiment": "Inhibition of recombinant human SYK expressed in insect Sf21 cells assessed as remaining activity at 10 uM preincubated for 15 mins followed by poly(Glu:Tyr) substrate addition for 30 mins in presence of [gamma-32P]ATP by […] assay"}, "[17]": {"experiment": "AUC (0 to infinity) in Sprague-Dawley rat at 5 mg/kg, iv up to 24 hrs by LC/MS/MS analysis", "type": "ADME, organism-based", "design": "dose 5 mg/kg, route intravenous, time infinity", "conditions": "in vivo"}, "[18]": {"target": "Aurora kinase B (Homo sapiens) (UniProt Q96GD4)", "sequence (Q96GD4 whole entry)": "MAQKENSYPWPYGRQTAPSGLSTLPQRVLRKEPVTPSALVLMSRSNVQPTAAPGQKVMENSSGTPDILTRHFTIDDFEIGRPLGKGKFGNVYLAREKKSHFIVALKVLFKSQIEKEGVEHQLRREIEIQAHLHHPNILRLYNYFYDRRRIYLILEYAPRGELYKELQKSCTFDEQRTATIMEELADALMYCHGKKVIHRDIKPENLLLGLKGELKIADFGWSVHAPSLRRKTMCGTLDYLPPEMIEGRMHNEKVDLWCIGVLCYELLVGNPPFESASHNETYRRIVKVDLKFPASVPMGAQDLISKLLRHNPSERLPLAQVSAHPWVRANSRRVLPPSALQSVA", "experiment": "Inhibition of human AURORA B assessed as remaining activity at 10 uM preincubated for 15 mins followed by substrate addition for 30 mins in presence of [gamma-32P]ATP by […] assay"}, "[19]": {"target": "Vascular endothelial growth factor receptor 1 (Homo sapiens) (UniProt P17948)", "sequence (P17948 whole entry)": "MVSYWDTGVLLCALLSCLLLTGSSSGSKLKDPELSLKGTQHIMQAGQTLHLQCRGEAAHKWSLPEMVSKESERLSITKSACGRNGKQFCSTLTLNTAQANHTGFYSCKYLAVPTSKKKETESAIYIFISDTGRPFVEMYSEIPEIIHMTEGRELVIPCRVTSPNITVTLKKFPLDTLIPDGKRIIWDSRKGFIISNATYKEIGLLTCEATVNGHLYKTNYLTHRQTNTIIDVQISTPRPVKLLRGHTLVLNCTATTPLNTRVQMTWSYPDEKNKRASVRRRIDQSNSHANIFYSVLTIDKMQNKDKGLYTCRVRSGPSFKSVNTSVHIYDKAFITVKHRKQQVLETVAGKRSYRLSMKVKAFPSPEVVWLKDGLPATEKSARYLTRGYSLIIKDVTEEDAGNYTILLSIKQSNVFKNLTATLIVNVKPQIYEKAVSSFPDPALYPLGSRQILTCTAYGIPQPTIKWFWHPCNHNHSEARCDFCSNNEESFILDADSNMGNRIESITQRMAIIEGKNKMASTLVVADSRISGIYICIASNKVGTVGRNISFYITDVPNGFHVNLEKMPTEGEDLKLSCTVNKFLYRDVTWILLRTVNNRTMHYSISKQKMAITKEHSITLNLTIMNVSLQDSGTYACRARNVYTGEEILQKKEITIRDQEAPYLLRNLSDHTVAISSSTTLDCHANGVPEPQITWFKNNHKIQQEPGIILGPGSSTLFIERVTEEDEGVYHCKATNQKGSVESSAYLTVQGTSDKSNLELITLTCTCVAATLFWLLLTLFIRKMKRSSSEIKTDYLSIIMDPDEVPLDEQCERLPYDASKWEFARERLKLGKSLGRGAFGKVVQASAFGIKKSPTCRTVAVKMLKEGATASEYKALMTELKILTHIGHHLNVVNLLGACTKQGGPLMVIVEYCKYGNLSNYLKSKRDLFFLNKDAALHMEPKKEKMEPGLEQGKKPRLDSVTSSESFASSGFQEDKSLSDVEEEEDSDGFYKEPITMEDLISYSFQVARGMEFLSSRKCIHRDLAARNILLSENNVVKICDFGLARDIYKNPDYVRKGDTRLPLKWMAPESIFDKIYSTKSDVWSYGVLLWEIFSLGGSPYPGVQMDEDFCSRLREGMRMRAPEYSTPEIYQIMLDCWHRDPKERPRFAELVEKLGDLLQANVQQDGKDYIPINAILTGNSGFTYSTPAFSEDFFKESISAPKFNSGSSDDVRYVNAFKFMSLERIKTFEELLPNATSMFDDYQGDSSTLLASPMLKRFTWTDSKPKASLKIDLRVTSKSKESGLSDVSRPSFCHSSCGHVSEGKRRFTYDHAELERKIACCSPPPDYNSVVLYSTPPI", "experiment": "Inhibition of recombinant human FLT1 expressed in insect Sf21 cells assessed as remaining activity at 10 uM preincubated for 15 mins followed by poly(Glu:Tyr) substrate addition for 30 mins in presence of [gamma-32P]ATP by […] assay"}}, "note": "pIC50: −log10 of the molar value."}
{"smiles": "CNCCOc1ccc(-c2sc3nc(-c4cccs4)nc(NN4C(=O)C=C(C)C4=O)c3c2C)cc1.Cl", "values": [{"measurement": "AUC(0-inf)", "setting": "[1]", "value": 2170, "unit": "ng·h/mL"}, {"measurement": "pIC50", "setting": "[2]", "value": 5.54}, {"measurement": "Activity", "setting": "[3]", "value": 72, "unit": "%"}, {"measurement": "Activity", "setting": "[4]", "value": 102, "unit": "%"}, {"measurement": "Activity", "setting": "[5]", "value": 30, "unit": "%"}, {"measurement": "Tmax", "setting": "[6]", "value": 15, "unit": "min"}, {"measurement": "solubility at 1 h", "setting": "[7]", "value": 2.96, "unit": "µM"}, {"measurement": "GI50", "setting": "cells", "value": 559, "unit": "nM"}, {"measurement": "Activity", "setting": "[8]", "value": 87, "unit": "%"}, {"measurement": "Activity", "setting": "[9]", "value": 101, "unit": "%"}, {"measurement": "Activity", "setting": "[10]", "value": 67, "unit": "%"}, {"measurement": "bioavailability", "setting": "[11]", "value": 17, "unit": "%"}, {"measurement": "Activity", "setting": "[12]", "value": 53, "unit": "%"}, {"measurement": "pIC50", "setting": "[13]", "value": 8.10}, {"measurement": "Activity", "setting": "[14]", "value": 31, "unit": "%"}, {"measurement": "Activity", "setting": "[15]", "value": 81, "unit": "%"}, {"measurement": "Activity", "setting": "[16]", "value": 80, "unit": "%"}, {"measurement": "AUC(0-inf)", "setting": "[17]", "value": 2120, "unit": "ng·h/mL"}, {"measurement": "Activity", "setting": "[18]", "value": 42, "unit": "%"}, {"measurement": "Activity", "setting": "[19]", "value": 40, "unit": "%"}]}
